Data as given in ChEMBL document CHEMBL1806479, “Structure-activity study on a series of α-glutamic acid scaffold based compounds as new ADAMTS inhibitors” (Bioorg Med Chem Lett, 2011).

Tests used:
[1] = target: T1, A disintegrin and metalloproteinase with thrombospondin motifs 4 (Homo sapiens) (UniProt O75173); experiment: Inhibition of human recombinant ADAMTS4 at 1 uM by fluorimetric assay
T1 sequence (whole entry): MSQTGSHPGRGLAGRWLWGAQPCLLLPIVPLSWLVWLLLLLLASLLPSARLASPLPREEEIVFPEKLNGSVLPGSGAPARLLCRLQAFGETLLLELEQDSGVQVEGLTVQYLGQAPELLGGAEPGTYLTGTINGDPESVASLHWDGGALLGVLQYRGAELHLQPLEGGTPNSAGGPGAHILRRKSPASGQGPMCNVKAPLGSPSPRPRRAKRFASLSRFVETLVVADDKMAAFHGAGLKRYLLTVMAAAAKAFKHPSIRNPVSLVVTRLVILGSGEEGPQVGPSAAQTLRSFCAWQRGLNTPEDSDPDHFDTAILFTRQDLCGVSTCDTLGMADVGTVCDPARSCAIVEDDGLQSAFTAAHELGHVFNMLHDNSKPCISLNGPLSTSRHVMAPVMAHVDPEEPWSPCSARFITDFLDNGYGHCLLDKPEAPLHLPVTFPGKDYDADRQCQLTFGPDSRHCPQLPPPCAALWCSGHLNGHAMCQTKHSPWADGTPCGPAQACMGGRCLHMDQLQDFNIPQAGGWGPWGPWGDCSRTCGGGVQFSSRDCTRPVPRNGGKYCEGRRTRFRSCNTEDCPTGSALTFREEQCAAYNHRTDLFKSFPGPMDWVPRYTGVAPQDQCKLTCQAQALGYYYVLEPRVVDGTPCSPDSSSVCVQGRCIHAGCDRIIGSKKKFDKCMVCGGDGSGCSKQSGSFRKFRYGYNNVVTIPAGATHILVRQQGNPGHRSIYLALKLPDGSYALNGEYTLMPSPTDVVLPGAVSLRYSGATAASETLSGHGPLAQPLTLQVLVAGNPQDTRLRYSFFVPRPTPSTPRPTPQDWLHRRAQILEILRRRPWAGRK

[2] = target: T1, A disintegrin and metalloproteinase with thrombospondin motifs 4 (Homo sapiens); experiment: Inhibition of human recombinant ADAMTS4 at 10 uM by fluorimetric assay
[3] = target: T2, A disintegrin and metalloproteinase with thrombospondin motifs 5 (Homo sapiens, UniProt Q9UNA0); experiment: Inhibition of human recombinant ADAMTS5 by fluorimetric assay
T2 sequence (Q9UNA0 whole entry): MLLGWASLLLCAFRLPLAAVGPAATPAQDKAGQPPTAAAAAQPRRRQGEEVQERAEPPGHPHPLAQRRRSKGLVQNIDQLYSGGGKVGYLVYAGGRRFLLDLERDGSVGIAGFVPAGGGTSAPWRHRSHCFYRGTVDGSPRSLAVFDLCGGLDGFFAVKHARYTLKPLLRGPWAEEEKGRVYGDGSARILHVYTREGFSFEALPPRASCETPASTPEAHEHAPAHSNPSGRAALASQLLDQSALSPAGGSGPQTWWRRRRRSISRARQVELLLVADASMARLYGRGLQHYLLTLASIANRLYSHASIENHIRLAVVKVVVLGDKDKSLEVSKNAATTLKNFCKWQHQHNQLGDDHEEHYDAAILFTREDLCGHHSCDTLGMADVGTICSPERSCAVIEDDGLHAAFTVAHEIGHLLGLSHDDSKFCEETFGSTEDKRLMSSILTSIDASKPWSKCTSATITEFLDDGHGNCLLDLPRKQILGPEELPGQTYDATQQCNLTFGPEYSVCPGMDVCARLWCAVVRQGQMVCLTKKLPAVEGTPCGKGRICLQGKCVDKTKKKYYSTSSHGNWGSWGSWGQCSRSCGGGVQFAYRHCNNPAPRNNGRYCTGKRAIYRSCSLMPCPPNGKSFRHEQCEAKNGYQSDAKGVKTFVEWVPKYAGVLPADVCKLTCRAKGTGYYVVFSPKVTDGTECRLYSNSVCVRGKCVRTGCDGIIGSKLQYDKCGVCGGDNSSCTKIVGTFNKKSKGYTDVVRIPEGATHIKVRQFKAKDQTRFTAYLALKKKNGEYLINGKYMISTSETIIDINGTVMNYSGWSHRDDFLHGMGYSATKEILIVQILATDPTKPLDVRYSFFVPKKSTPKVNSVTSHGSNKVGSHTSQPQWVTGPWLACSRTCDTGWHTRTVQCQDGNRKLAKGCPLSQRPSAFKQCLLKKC

[4] = target: T1, A disintegrin and metalloproteinase with thrombospondin motifs 4 (Homo sapiens); experiment: (§1) Inhibition of human recombinant ADAMTS4 by fluorimetric assay
[5] = target: T3, A disintegrin and metalloproteinase with thrombospondin motifs 4 (Homo sapiens, UniProt O75173); experiment: as §1
T3 sequence (O75173 whole entry): T1 sequence (whole entry)

[6] = Inhibition of aggrecanase

Row | Compound | inhibition [1] [%] | inhibition [2] [%] | IC50 [3] [µM] | inhibition [4] | IC50 [5] [µM] | IC50 [6] [µM]
1 | Cc1ccc(CCc2nnc([C@H](CCC(=O)O)NC(=O)c3ccc(-c4ccccc4)cc3)o2)cc1 | 27 | 56 | – | – | – | –
2 | CC(C)(Cc1ccccc1)c1nnc([C@H](CCC(=O)O)NC(=O)c2ccc(-c3ccccc3)cc2)o1 | 23 | 47 | – | – | – | –
3 | O=C(O)CC[C@H](NC(=O)c1ccc(-c2ccncc2)cc1)c1nnc(CCc2ccccc2)o1 | 8 | 18 | – | – | – | –
4 | O=C(O)CC[C@H](NC(=O)c1ccc(-c2cccnc2)cc1)c1nnc(CCc2ccccc2)o1 | 12 | 39 | – | – | – | –
5 | O=C(O)CC[C@H](NC(=O)c1ccc(-c2ccccc2)cc1)c1nnc(C2(c3ccccc3)CC2)o1 | 5 | 20 | – | – | – | –
6 | CC(C)(c1ccccc1)c1nnc([C@H](CCC(=O)O)NC(=O)c2ccc(-c3ccccc3)cc2)o1 | -5 | 5 | – | – | – | –
7 | O=C(O)CC[C@H](NC(=O)c1ccc(-c2ccccc2)cc1)c1nnc(Cc2ccccc2)o1 | 17 | 26 | – | – | – | –
8 | COc1cc(CCc2nnc([C@H](CCC(=O)O)NC(=O)c3ccc(-c4ccccc4)cc3)o2)cc(OC)c1OC | 35 | 74 | 4.3 | Dose-dependent effect | 3.3 | –
9 | COc1ccc(CCc2nnc([C@H](CCC(=O)O)NC(=O)c3ccc(-c4ccccc4)cc3)o2)cc1 | 35 | 66 | 24.3 | Dose-dependent effect | 4.9 | –
10 | O=C(C[C@@H](Cc1ccc(-c2ccc3c(c2)OCO3)cc1)C(=O)N[C@@H]1c2ccccc2C[C@@H]1O)NO | – | – | – | – | – | 0.0015
11 | O=C(O)CC[C@H](NC(=O)c1ccc(-c2ccccc2)cc1)c1nnc(CCc2ccccc2)o1 | 30 | 59 | 57.3 | Dose-dependent effect | 9.7 | –
12 | CC(C)(Cc1nnc([C@H](CCC(=O)O)NC(=O)c2ccc(-c3ccccc3)cc2)o1)c1ccccc1 | 19 | 45 | – | – | – | –
13 | O=C(O)CC[C@H](NC(=O)c1ccc(-c2ccccc2)cc1)c1nnc(CCc2ccc(O)cc2)o1 | 22 | 51 | – | – | – | –
14 | COc1cc(Cc2nnc([C@H](CCC(=O)O)NC(=O)c3ccc(-c4ccccc4)cc3)o2)cc(OC)c1OC | 47 | 86 | 0.8 | Dose-dependent effect | 1.2 | –
15 | COc1ccc(Cc2nnc([C@H](CCC(=O)O)NC(=O)c3ccc(-c4ccccc4)cc3)o2)cc1 | 5 | 21 | – | – | – | –
